Experiments:
[1] = test system: Dermatomed porcine ear skin; type: in vitro ADME; conditions: 1 % w/v in HEPES buffer (pH 7.15) containing 25 mM sodium chloride
Procedure: Untreated porcine ears were procured from a local slaughter house. Dorsal side of the porcine ears was used for the study.. For study #4, dermatomed porcine skin was prepared by dermatoming full thickness skin using Dermatome 75 mm (Nouvag AG TCM 3000, Goldach, Switzerland).
Dermatome is a surgical instrument used to produce thin slices of skin. Dermatoming is refering to the procedure to produce thin layers of the skin by using such device.
In vitro permeation study was performed using Franz diffusion cells (PermeGear V6 station vertical cell). These models contain 6 diffusion cells in each console with 5 ml receptor volume and 9 mm orifice. The diffusion area was 0.64 cm^2.
After washing the cells, receptor solution was left overnight and replaced with fresh sodium chloride solution (0.9 % w/v), 30 minutes prior to mounting the skin. The receptor chamber temperature was maintained at 37°C by the built-in water circulation jacket so as to attain the skin temperature of 32°C.
Skin pieces were then mounted between the donor and receptor compartment (containing 0.9 % (w/v) sodium chloride solution) of Franz diffusion cells with the stratum corneum facing towards the donor side.
The formulation (160 mg formulation containing 1.6 mg active/0.64 sq.cm) was applied in the donor chamber using a positive displacement pipette (Rainin PosD). Simplex formulation was applied in the donor chamber. The donor compartment was left open to mimic in vivo conditions. Six replicates (with the exception of preliminary study 4) were performed for each formulation for each test group (iontophoresis and corresponding passive control - "no current" group) as specified in Table 1 as follows. In the Table 1, the "active agent" is N-acetyl-3-trifluoromethyl-phenyl-(valine-glycine).
Current (0.2 mA/sq.) was applied using silver/silver chloride electrode system and a constant current source (Keithley®; Keithley Instruments, Cleveland, OH, USA). […] Current application was monitored with a chronometer. […]
Receptor samples were taken after stopping the current for the defined duration, which was 20 min in all the studies except study #4, in which sampling was performed at 5, 10, 20, 60, 120, and 240 min. […] The receptor samples were filtered and quantified with methanol calibration using LCMS.
All samples were analyzed by a validated LCMS method which was performed on an Agilent 6410 Triple Quad System to determine how much of the cosmetic agent passed into and through the skin.
Results of the studies were plotted as average amount of active permeated in receptor, quantity of the active in tape strips, and underlying skin for each test group (passive or iontophoresis treatment group). […]

pKa of the active agent = type: physicochemical

CC(=O)N(c1cccc(C(F)(F)F)c1)C(C(=O)NCC(=O)O)C(C)C (centres unmarked) [active agent, N-acetyl-3-trifluoromethyl-phenyl-(valine-glycine)]
average cumulative amount of active delivered after 20 min ([1]; anodal iontophoresis 0.2 mA/sq.cm compared with passive and cathodal iontophoresis, p<0.05): significantly higher | permeation of the active agent through dermatomed porcine skin over 4 h study duration ([1]; anodal iontophoresis 0.2 mA/sq.cm for 2 h compared with passive and cathodal iontophoresis, p<0.05): significantly enhance | cumulative active permeation after 20 min ([1]; cathodal iontophoresis 0.2 mA/sq.cm compared with passive, p>0.05): no significant difference | cumulative active permeation after 4 h ([1]; cathodal iontophoresis 0.2 mA/sq.cm for 2 h compared with passive, p>0.05): no significant difference | pKa (pKa of the active agent): 3.3

Reference: patent EP3434255A1, “IONTOPHORESIS METHOD, COMPOSITION AND KIT FOR DELIVERING N-ACETYL-3-TRIFLUOROMETHYL-PHENYL-(VALINE-GLYCINE) THROUGH THE SKIN” (priority 2017, dated 2019)
